Inhibition data for 19 molecules are collected here from US7524964B2, “Tetrahydrothiopyrano pyrazole cannabinoid modulators” (Janssen Pharmaceutica NV, priority 2005, dated 2009).

Usually inhibition stands for the share of the control response that was lost under treatment.

Assay [1] deals with human CB1 receptor (Homo sapiens, UniProt P21554). The experiment in a line: Binding assay, cannabinoid CB1 receptor ([3H]-CP-55,940 displacement). The arrangement: expressed in transfected cells; host or cells: SK-N-MC cells, pcDNA3 CB-1 (human), semi-purified membranes. The settings on record: read-out: CB1 binding percent inhibition; for inhibition at 10 µM: test concentration 10 μM (superscript c); for inhibition at 0.2 µM: test concentration 0.2 μM (superscript a). As to the method: (§1) Binding Assay for CB1 or CB2 Agonists or Inverse Agonists
(§2) The human CB-1 and CB-2 receptors were stably expressed in SK-N-MC cells transfected with pcDNA3 CB-1 (human) or pcDNA3 CB-2 (human). The cells were grown in T-180 cell culture flasks under standard cell culture conditions at 37° C. in a 5% CO2 atmosphere. The cells were harvested by trypsinization and homogenized in a homogenization buffer (10 mM Tris, 0.2 mM MgCl2, 5 mM KCl, with protease inhibitors aprotinin, leupeptin, pepstatin A and bacitracin) and centrifuged (2000 g). The supernatant was then centrifuged in 2M sucrose (31,300 g) to produce a semi-purified membrane pellet. The pellet was resuspended in homogenization and store at −80° C.
(§3) On the day of the assay, the pellet was thawed on ice and diluted in assay buffer (50 mM Tris-HCl, 5 mM MgCl2, 2.5 mM EDTA, 0.5 mg/mL fatty acid free bovine serum albumin, pH 7.5). The diluted membrane was added with buffer, test compound or standard and the radioligand [H]^3+-CP-55,940_(0.2 nM) to the wells of a 96-well polypropylene plate. Non-specific binding was measured in wells containing 10 uM WIN 55,212. The plate was covered and incubated for 90 minutes at 30° C. The contents were then aspirated onto a Packard Unifilter G/C filter bottom plate prewet with 0.5% polyethyleneimine. The wells of the polypropylene plate were rinsed and aspirated seven times with a 0.9% saline-0.5% Tween 20 solution. The Unifilter plate was dried, a scintillation cocktail was added to each well and the counts representing binding were quantitated in a TopCount scintillation counter.
(§4) The IC50 binding values for compounds tested were calculated by linear regression and were obtained from studies in which varying compound concentrations were used. Where an IC50 was not obtained, test results are provided as percent inhibition at a test concentration of ^a0.2 μM, ^b1 μM or ^c10 μM.

The target of assay [2] is T1, human CB-2 receptor (Homo sapiens, UniProt P34972).
T1 construct: expressed in transfected cells; host or cells: SK-N-MC cells, pcDNA3 CB-2 (human), semi-purified membranes
The experiment in a line: Binding assay, cannabinoid CB2 receptor ([3H]-CP-55,940 displacement). The settings on record: read-out: CB2 binding percent inhibition; for inhibition at 10 µM: test concentration 10 μM (superscript c); for inhibition at 0.2 µM: test concentration 0.2 μM (superscript a). How it is done:
as §1, §2, §3, §4

Sequence of human CB1 receptor (P21554 whole entry): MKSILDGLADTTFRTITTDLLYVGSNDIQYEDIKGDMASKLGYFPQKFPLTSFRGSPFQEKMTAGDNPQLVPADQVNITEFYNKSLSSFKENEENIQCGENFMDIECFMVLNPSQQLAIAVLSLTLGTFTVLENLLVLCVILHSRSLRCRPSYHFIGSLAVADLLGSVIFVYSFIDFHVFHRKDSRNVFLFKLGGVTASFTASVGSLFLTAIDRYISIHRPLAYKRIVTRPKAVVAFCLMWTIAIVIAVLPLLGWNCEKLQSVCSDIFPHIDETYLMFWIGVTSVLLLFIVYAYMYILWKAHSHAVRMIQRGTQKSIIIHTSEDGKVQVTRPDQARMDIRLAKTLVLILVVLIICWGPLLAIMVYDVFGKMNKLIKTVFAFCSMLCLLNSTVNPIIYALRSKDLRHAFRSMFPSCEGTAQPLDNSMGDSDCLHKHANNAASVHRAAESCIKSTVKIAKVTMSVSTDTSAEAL
T1 sequence (P34972 whole entry): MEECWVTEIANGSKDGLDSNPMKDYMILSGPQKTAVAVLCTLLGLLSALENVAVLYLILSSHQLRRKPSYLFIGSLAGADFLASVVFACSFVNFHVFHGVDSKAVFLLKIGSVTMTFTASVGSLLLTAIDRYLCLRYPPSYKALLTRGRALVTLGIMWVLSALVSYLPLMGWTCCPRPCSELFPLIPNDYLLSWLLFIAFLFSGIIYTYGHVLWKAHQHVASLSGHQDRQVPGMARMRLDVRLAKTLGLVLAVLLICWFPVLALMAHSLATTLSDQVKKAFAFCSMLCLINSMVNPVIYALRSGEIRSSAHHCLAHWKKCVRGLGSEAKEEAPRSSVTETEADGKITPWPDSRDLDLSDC

On to `C[C@H](NC(=O)/C=C/c1nn(Cc2ccccc2)c2c1C[S+]([O-])CC2)c1ccccc1` (stereo partly drawn) [Cpd 34, (2E)-3-(1-benzyl-5-oxo-4,5,6,7-tetrahydro-1H-5λ^4-thiopyrano[4,3-c]pyrazol-3-yl)-N-[(1S)-1-phenyl-ethyl]-acrylamide], for which the values for the inhibition at 10 µM in assay [1] and in assay [2] were 11% and 21%, respectively.
Regarding `C[C@@H](NC(=O)/C=C/c1nn(Cc2ccccc2)c2c1C[S+]([O-])CC2)c1ccccc1` (stereo partly drawn) [Cpd 35, (2E)-3-(1-benzyl-5-oxo-4,5,6,7-tetrahydro-1H-5λ^4-thiopyrano[4,3-c]pyrazol-3-yl)-N-[(1R)-1-phenyl-ethyl]-acrylamide], the inhibition at 10 µM in assay [1] is 4%; in assay [2] it was 28%.
Taken in the same sequence, the figures for `C[C@@H](NC(=O)/C=C/c1nn(Cc2ccccc2)c2c1CS(=O)(=O)CC2)c1ccccc1` [Cpd 37, (2E)-3-(1-benzyl-5,5-dioxo-4,5,6,7-tetrahydro-1H-5λ^6-thiopyrano[4,3-c]pyrazol-3-yl)-N-[(1R)-1-phenyl-ethyl]-acrylamide] were 11% and 7%.
Consider `C[C@H](NS(=O)(=O)/C=C/c1nn(-c2ccc(F)cc2F)c2c1CSCC2Cc1cccc(F)c1)c1ccccc1` (stereo partly drawn) [Cpd 38, (E)-2-[1-(2,4-difluoro-phenyl)-7-(3-fluoro-benzyl)-1,4,6,7-tetrahydro-thiopyrano[4,3-c]pyrazol-3-yl]-ethenesulfonic acid [(1S)-1-phenyl-ethyl]-amide], for which the values for the inhibition at 0.2 µM in assay [1] and in assay [2] were 28% and 15%, respectively.
Turning to `C[C@@H](NS(=O)(=O)/C=C/c1nn(-c2ccc(F)cc2F)c2c1CSCC2Cc1cccc(F)c1)C1CCCCC1` (stereo partly drawn) [Cpd 39, (E)-2-[1-(2,4-difluoro-phenyl)-7-(3-fluoro-benzyl)-1,4,6,7-tetrahydro-thiopyrano[4,3-c]pyrazol-3-yl]-ethenesulfonic acid [(1R)-1-cyclohexyl-ethyl]-amide], the inhibition at 0.2 µM in assay [1] worked out at 55%; in assay [2] it was 37%.
Regarding `O=S(=O)(/C=C/c1nn(-c2ccc(F)cc2F)c2c1CSCC2Cc1cccc(F)c1)NN1CCCCC1` (centres unmarked) [Cpd 40, (E)-2-[1-(2,4-difluoro-phenyl)-7-(3-fluoro-benzyl)-1,4,6,7-tetrahydro-thiopyrano[4,3-c]pyrazol-3-yl]-ethenesulfonic acid piperidin-1-ylamide], the inhibition at 0.2 µM is 12% in assay [1] and 10% in assay [2].
Taken in the same sequence, the figures for `O=S(=O)(/C=C/c1nn(-c2ccc(F)cc2F)c2c1CSCC2Cc1cccc(F)c1)NN1CCOCC1` (centres unmarked) [Cpd 41, (E)-2-[1-(2,4-difluoro-phenyl)-7-(3-fluoro-benzyl)-1,4,6,7-tetrahydro-thiopyrano[4,3-c]pyrazol-3-yl]-ethenesulfonic acid morpholin-4-ylamide] were 9% and 8%.
The corresponding values for `C[C@H](NS(=O)(=O)/C=C/c1nn(-c2ccc(F)cc2F)c2c1CS(=O)(=O)CC2Cc1cccc(F)c1)c1ccccc1` (stereo partly drawn) [Cpd 42, (E)-2-[1-(2,4-difluoro-phenyl)-7-(3-fluoro-benzyl)-5,5-dioxo-4,5,6,7-tetrahydro-1H-5λ^6-thiopyrano[4,3-c]pyrazol-3-yl]-ethenesulfonic acid [(1S)-1-phenyl-ethyl]-amide] are 31% and 20%.
The corresponding values for `C[C@@H](NS(=O)(=O)/C=C/c1nn(-c2ccc(F)cc2F)c2c1CS(=O)(=O)CC2Cc1cccc(F)c1)C1CCCCC1` (stereo partly drawn) [Cpd 43, (E)-2-[1-(2,4-difluoro-phenyl)-7-(3-fluoro-benzyl)-5,5-dioxo-4,5,6,7-tetrahydro-1H-5λ^6-thiopyrano[4,3-c]pyrazol-3-yl]-ethenesulfonic acid [(1R)-1-cyclohexyl-ethyl]-amide] are 41% and 11%.
Turning to `O=S1(=O)Cc2c(/C=C/S(=O)(=O)NN3CCOCC3)nn(-c3ccc(F)cc3F)c2C(Cc2cccc(F)c2)C1` (centres unmarked) [Cpd 44, (E)-2-[1-(2,4-difluoro-phenyl)-7-(3-fluoro-benzyl)-5,5-dioxo-4,5,6,7-tetrahydro-1H-5λ^6-thiopyrano[4,3-c]pyrazol-3-yl]-ethenesulfonic acid morpholin-4-ylamide], the inhibition at 0.2 µM in assay [1] was found to be 3%; in assay [2], 9%.
Regarding `O=S1(=O)Cc2c(/C=C/S(=O)(=O)NN3CCCCC3)nn(-c3ccc(F)cc3F)c2C(Cc2cccc(F)c2)C1` (centres unmarked) [Cpd 45, (E)-2-[1-(2,4-difluoro-phenyl)-7-(3-fluoro-benzyl)-5,5-dioxo-4,5,6,7-tetrahydro-1H-5λ^6-thiopyrano[4,3-c]pyrazol-3-yl]-ethenesulfonic acid piperidin-1-ylamide], the inhibition at 0.2 µM in assay [1] turned out to be 33%; in assay [2], 8%.
The corresponding values for `C[C@H](NS(=O)(=O)/C=C/c1nn(-c2ccc(Cl)cc2Cl)c2c1CSCC2Cc1cccc(Cl)c1)c1ccccc1` (stereo partly drawn) [Cpd 46, (E)-2-[7-(3-chloro-benzyl)-1-(2,4-dichloro-phenyl)-1,4,6,7-tetrahydro-thiopyrano[4,3-c]pyrazol-3-yl]-ethenesulfonic acid [(1S)-1-phenyl-ethyl]-amide] are 43% and 18%.
The corresponding values for `C[C@H](NS(=O)(=O)/C=C/c1n[nH]c2c1CSCC2Cc1cccc(F)c1)c1ccccc1` (stereo partly drawn) [Cpd 47, (E)-2-[7-(3-fluoro-benzyl)-1,4,6,7-tetrahydro-thiopyrano[4,3-c]pyrazol-3-yl]-ethenesulfonic acid [(1S)-1-phenyl-ethyl]-amide] are 24% and 26%.
The corresponding values for `C[C@@H](NS(=O)(=O)/C=C/c1n[nH]c2c1CSCC2Cc1cccc(F)c1)C1CCCCC1` (stereo partly drawn) [Cpd 48, (E)-2-[7-(3-fluoro-benzyl)-1,4,6,7-tetrahydro-thiopyrano[4,3-c]pyrazol-3-yl]-ethenesulfonic acid [(1R)-1-cyclohexyl-ethyl]-amide] are 15% and 11%.
With `CCOC(=O)[C@@H]1C2CCC(C2)[C@@H]1NC(=O)c1nn(-c2ccc(F)cc2F)c2c1CS(=O)(=O)C[C@@H]2Cc1cccc(F)c1` (stereo partly drawn) [Cpd 49, (2R,3S)-3-{[1-(2,4-difluoro-phenyl)-(7R)-(3-fluoro-benzyl)-5,5-dioxo-4,5,6,7-tetrahydro-1H-5λ^6-thiopyrano[4,3-c]pyrazole-3-carbonyl]-amino}-bicyclo[2.2.1]heptane-2-carboxylic acid ethyl ester], the values for the inhibition at 0.2 µM in assay [1] and in assay [2] were 33% and 6%, respectively.
As to `CCOC(=O)[C@@H]1C2CCC(C2)[C@@H]1NC(=O)c1nn(-c2ccc(F)cc2F)c2c1CS(=O)(=O)C[C@H]2Cc1cccc(F)c1` (stereo partly drawn) [Cpd 50, (2R,3S)-3-{[1-(2,4-difluoro-phenyl)-(7S)-(3-fluoro-benzyl)-5,5-dioxo-4,5,6,7-tetrahydro-1H-5λ^6-thiopyrano[4,3-c]pyrazole-3-carbonyl]-amino}-bicyclo[2.2.1]heptane-2-carboxylic acid ethyl ester], the inhibition at 0.2 µM in assay [1] amounted to 50%; in assay [2], 24%.
In the case of `O=C(N[C@@H]1c2ccccc2C[C@@H]1O)c1nn(-c2ccc(F)cc2F)c2c1CS(=O)(=O)CC2Cc1cccc(F)c1` (stereo partly drawn) [Cpd 51, 1-(2,4-difluoro-phenyl)-7-(3-fluoro-benzyl)-5,5-dioxo-4,5,6,7-tetrahydro-1H-5λ^6-thiopyrano[4,3-c]pyrazole-3-carboxylic acid [(1R,2S)-2-hydroxy-indan-1-yl]-amide], the figures for the inhibition at 0.2 µM in assay [1] and in assay [2] were 35% and 9%, respectively.
Take `O=C(NNc1ccc(Cl)cc1Cl)c1nn(-c2ccc(Cl)cc2Cl)c2c1CSC/C2=C\c1ccc(F)cc1` [Cpd 52, (7Z)-1-(2,4-dichloro-phenyl)-7-(4-fluoro-benzylidene)-1,4,6,7-tetrahydro-thiopyrano[4,3-c]pyrazole-3-carboxylic acid N′-(2,4-dichloro-phenyl)-hydrazide]: the inhibition at 0.2 µM amounted to 66% in assay [1] and 28% in assay [2].
As to `O=C(NNc1ccc(Cl)cc1Cl)c1nn(-c2ccc(Cl)cc2Cl)c2c1CS(=O)(=O)C/C2=C\c1ccc(F)cc1` [Cpd 53, (7Z)-1-(2,4-dichloro-phenyl)-7-(4-fluoro-benzylidene)-5,5-dioxo-4,5,6,7-tetrahydro-1H-5λ^6-thiopyrano[4,3-c]pyrazole-3-carboxylic acid N′-(2,4-dichloro-phenyl)-hydrazide], the values for the inhibition at 0.2 µM in assay [1] and in assay [2] were 55% and 30%, respectively.
